{"source": "patent US8252807B2", "about": "“Methods of inhibiting the interaction between S100 and the receptor for advanced glycation end-products” (Board of Regents, The University of Texas System, priority 2007, dated 2012)", "key": {"[1]": {"test_system": "SKOV3 ovarian cells", "experiment": "SKOV3 ovarian cell viability with taxol", "type": "cell-based", "conditions": "taxol 5 μM, cromolyn 10 μM, 48 hours", "protocol": "SKOV3 ovarian cells were plated and treated with taxol (5 μM) either in the presence or absence of cromolyn (10 μM) for 48 hours. Cell viability was analyzed after 48 hours. *, P<0.05."}, "[2]": {"biological_target": "S100B with RAGE (Homo sapiens, UniProt P04271)", "sequence (P04271 whole entry, species assumed)": "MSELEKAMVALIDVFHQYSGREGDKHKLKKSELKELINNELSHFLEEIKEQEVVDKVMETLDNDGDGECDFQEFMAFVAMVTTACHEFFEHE", "experiment": "S100B binding with RAGE ELISA (sRAGE coated plate)", "excerpt": "After removing un-bound S100B by washing with detergent, bound S100B and RAGE complex was quantified by adding HRP labeled antibody against S100B."}, "[3]": {"test_system": "BxPC-3 cells", "experiment": "Matrigel invasion assay, BxPC-3", "type": "cell-based", "conditions": "24 hours; for BxPC-3 cells invaded, mean: 0 μM mean=19.3%", "protocol": "FIGS. 2A-2D show the effect of cromolyn on pancreatic cancer cell invasion. Panc-1 and BxPC-3 cells were plated in Bio-coat matrigel and control chambers and cultured in serum-free culture media. After 24 hours non-invaded cells in the upper chamber were removed, and cells that invaded onto the lower surface of the membrane were counted from five adjacent fields. […] Data are expressed as the percent invasion through the matrigel matrix and membrane relative to migration through the control membrane. Means and 95% confidence intervals from three independent experiments performed in triplicate are shown. Two-tailed two-sample (unpaired) Student's t-tests were used to determine P values. Panc-1 and BxPC-3 cells were seeded in BIOCOAT matrigel invasion chambers and in control chambers without matrigel (Becton-Dickinson, Bedford, Mass.) according to the manufacturer's protocol. Panc-1 cells were seeded with S100P (100 nM) with or without cromolyn (100 μM), and BxPC-3 cells were seeded with or without cromolyn (1-100 μM). Briefly, 2.0×10^5 cells in 300 μL top solution (serum-free media) were added to each chamber and allowed to invade matrigel for 24 hours at 37° C. in a 5% CO2 atmosphere. The non-invading cells on the upper surface of membrane were removed from the chambers with a cotton swab, and the invading cells on the lower surface of the membrane were fixed and stained using a Diff-Quick stain kit (Becton Dickinson, Bedford, Mass.). After two washes with water, the chambers were allowed to air dry. The numbers of invading cells in five adjacent microscope fields per membrane were counted at 20× magnification to obtain the average number of cells per field. Data are expressed as the percent invasion through the matrigel matrix and membrane relative to the migration through the control membrane. The assays were performed three times."}, "[4]": {"test_system": "MPanc-96 cells", "experiment": "MPanc-96 cell apoptosis by flow cytometry, 72 hours", "type": "cell-based, human", "conditions": "100 and 1000 nM, with or without gemcitabine 10 μM", "protocol": "FIG. 11 compares the effects of cromolyn and C5 alone and in combination with gemcitabine on MPanc-96 cell apoptosis. MPanc-96 cells were treated with cromolyn or C5 (100 and 1000 nM) with (+) or without (−) gemcitabine (10 μM). Apoptosis was analyzed after 72 hours by flow cytometry."}, "[5]": {"biological_target": "T1, S100P (Homo sapiens, UniProt P25815)", "T1 construct": "full-length human S100P cDNA (NM_005980) was cloned into the pTrcHis2 vector; His tag; made in house", "experiment": "S100P binding to cromolyn using affinity chromatography", "conditions": "cromolyn coupled to AF-TOYOPEARL; EGTA elution; control column did not retain", "protocol": "Cromolyn was coupled with the amino group of AF-amino TOYOPEARL to generate a cromolyn affinity column. A negative control column was prepared by blocking the amino group. Purified S100P was added to both columns, which were then washed extensively. Protein was eluted from the columns using EGTA and subjected to sodium dodecylsulfate polyacrylamide gel electrophoresis and staining with Commassie blue. Lane 1 of the gel is the molecular weight marker; lane 2 is the eluate from the control column; and lane 3 is the eluate from the cromolyn column (arrow, S100P). The gel shown is one of three independent experiments.\nCromolyn was coupled to AF-TOYOPEARL resin as described in Shishibori, et al., Three distinct anti-allergic drugs, amlexanox, cromolyn and tranilast, bind to S100A 12 and S100A13 of the S100 protein family; Biochem. J. 1999 Mar. 15; 338 (Pt 3):583-9. Briefly, 0.1 grams of cromolyn was dissolved in 1 mL of N,N-dimethylformamide and added to 7 mL (5 grams wet mass) AF-TOYOPEARL. Next, 0.5 grams of N-ethyl-N-(3-dimethylaminopropyl) carbodiimide hydrochloride, suspended in 10 mL of N,N-dimethylformamide, was added to the cromolyn+AF-TOYOPEARL slurry. The pH was adjusted to 5.0, and the slurry was incubated with gentle shaking for 48 hours at 25° C. As a negative control, a column was prepared by blocking the amino group of AF-TOYOPEARL with sodium acetate and acetic anhydride. […]"}, "[6]": {"test_system": "Panc-1 cells", "experiment": "Matrigel invasion assay, Panc-1", "type": "cell-based", "conditions": "24 hours", "protocol": "FIGS. 2A-2D show the effect of cromolyn on pancreatic cancer cell invasion. Panc-1 and BxPC-3 cells were plated in Bio-coat matrigel and control chambers and cultured in serum-free culture media. After 24 hours non-invaded cells in the upper chamber were removed, and cells that invaded onto the lower surface of the membrane were counted from five adjacent fields. […] Data are expressed as the percent invasion through the matrigel matrix and membrane relative to migration through the control membrane. Means and 95% confidence intervals from three independent experiments performed in triplicate are shown. Two-tailed two-sample (unpaired) Student's t-tests were used to determine P values.\nPanc-1 and BxPC-3 cells were seeded in BIOCOAT matrigel invasion chambers and in control chambers without matrigel (Becton-Dickinson, Bedford, Mass.) according to the manufacturer's protocol. Panc-1 cells were seeded with S100P (100 nM) with or without cromolyn (100 μM), and BxPC-3 cells were seeded with or without cromolyn (1-100 μM). Briefly, 2.0×10^5 cells in 300 μL top solution (serum-free media) were added to each chamber and allowed to invade matrigel for 24 hours at 37° C. in a 5% CO2 atmosphere. The non-invading cells on the upper surface of membrane were removed from the chambers with a cotton swab, and the invading cells on the lower surface of the membrane were fixed and stained using a Diff-Quick stain kit (Becton Dickinson, Bedford, Mass.). After two washes with water, the chambers were allowed to air dry. The numbers of invading cells in five adjacent microscope fields per membrane were counted at 20× magnification to obtain the average number of cells per field. Data are expressed as the percent invasion through the matrigel matrix and membrane relative to the migration through the control membrane. The assays were performed three times."}}}
{"smiles": "O=C(O)c1cc(=O)c2c(OCC(O)COc3cccc4oc(C(=O)O)cc(=O)c34)cccc2o1", "note": "[cromolyn, disodium 1,3-bis[(2′-carboxylatochromon-5′-yl)oxy]-2-hydroxypropane]", "values": [{"measurement": "cell killing effect of taxol on ovarian cancer cells", "setting": "[1]", "result": "increased the cell killing effect of taxol"}, {"measurement": "interaction of S100B with RAGE", "setting": "[2]", "result": "inhibit the interaction of S100B with RAGE"}, {"measurement": "BxPC-3 cells invaded, difference versus 0 μM", "setting": "[3]; cromolyn 10 μM", "result": 10.0, "unit": "%"}, {"measurement": "BxPC-3 cells invaded, mean", "setting": "[3]; cromolyn 10 μM", "result": 9.3, "unit": "%"}, {"measurement": "BxPC-3 cells invaded, difference versus 0 μM", "setting": "[3]; cromolyn 100 μM", "result": 11.7, "unit": "%"}, {"measurement": "BxPC-3 cells invaded, mean", "setting": "[3]; cromolyn 100 μM", "result": 7.7, "unit": "%"}, {"measurement": "MPanc-96 cell viability", "setting": "[4]", "result": "inhibit MPanc-96 cell viability"}, {"measurement": "S100P retained by cromolyn affinity column", "setting": "[5]", "result": "retained S100P"}, {"measurement": "Panc-1 cells invaded, difference S100P versus S100P+cromolyn", "setting": "[6]", "result": 48.6, "unit": "%"}, {"measurement": "Panc-1 cells invaded, mean", "setting": "[6]; S100P 100 nM + cromolyn 100 μM", "result": 9.4, "unit": "%"}, {"measurement": "Panc-1 basal cell invasion", "setting": "[6]; no S100P", "result": "did not reduce basal cell invasion"}]}
